Laboratory results: patent US12708632B2 (Jazz Pharmaceuticals Research UK Limited, priority 2020, dated 2026)
“Also recorded” adds a separate entry of the source.

Tested on: seizures associated with Cortical Dysplasia and Cortical Brain Malformation
Assay: Open label, expanded-access program of botanically derived purified CBD: caregiver-diary seizure frequency
Format: in vivo, human patients
Design: reduction in atonic seizures over the treatment period / reduction in tonic seizures over the treatment period / reduction in focal seizures without impairment over the treatment period: concentration or dose not given beside the values
Conditions: for Seizure frequency: Focal with impairment: baseline 49.0; for Seizure frequency: Atonic: baseline 80.0
Protocol: Subjects were required to be on one or more AEDs at stable doses for a minimum of two weeks prior to baseline and to have stable vagus nerve stimulation (VNS) settings and ketogenic diet ratios for a minimum of four weeks prior to baseline.
Dose was then increased weekly by 5 mg/kg/day to a goal of 20 to 25 mg/kg/day.
A maximum dose of 50 mg/kg/day could be utilised for patients who were tolerating the medication but had not achieved seizure control; these patients had further weekly titration by 5 mg/kg/day.
Modifications were made to concomitant AEDs as per clinical indication.
Seizure frequency, intensity, and duration were recorded by caregivers in a diary during a baseline period of at least 28 days. Changes in seizure frequency relative to baseline were calculated after at least 2 weeks and at defined timepoints of treatment.
Patients may be defined as responders if they had more than 50% reduction in seizure frequency compared to baseline. the percent change in seizure frequency was calculated as follows: […]
The percent change of seizure frequency may be calculated for any time interval where seizure number has been recorded. For the purpose of this example the percent change of seizure frequency for the end of the treatment period was calculated as follows: […]

SMILES: C=C(C)[C@@H]1CCC(C)=C[C@H]1c1c(O)cc(CCCCC)cc1O [CBD, cannabidiol]
- Seizure frequency: Tonic (Patient 4, 96 weeks, CBD 50.0 mg/kg/day, baseline 196.0): 22.0 seizures per week
- Seizure frequency: Tonic (Patient 4, 120 weeks, CBD 42.6 mg/kg/day, baseline 196.0): 16.0 seizures per week
- Seizure frequency: Tonic (Patient 4, 132 weeks, CBD 49.8 mg/kg/day, baseline 196.0): 36.0 seizures per week
- reduction in tonic seizures over the treatment period (Patient 4, treated for 132 weeks, vs baseline): 81.6%
- Seizure frequency: Tonic (Patient 5, 4 weeks, CBD 20.0 mg/kg/day, baseline 4.0): 3.2 seizures per week
- Seizure frequency: Tonic (Patient 5, 8 weeks, CBD 35.0 mg/kg/day, baseline 4.0): 11.0 seizures per week
- Seizure frequency: Tonic (Patient 5, 12 weeks, CBD 50.0 mg/kg/day, baseline 4.0): 1.0 seizures per week
- Seizure frequency: Tonic (Patient 5, 24 weeks, CBD 50.0 mg/kg/day, baseline 4.0): 0.0 seizures per week
- Seizure frequency: Tonic (Patient 5, 36 weeks, CBD 47.0 mg/kg/day, baseline 4.0): 0.0 seizures per week
- Seizure frequency: Tonic (Patient 5, 48 weeks, CBD 46.0 mg/kg/day, baseline 4.0): 1.0 seizures per week
- Seizure frequency: Tonic (Patient 5, 60 weeks, CBD 49.0 mg/kg/day, baseline 4.0): 1.0 seizures per week
- Seizure frequency: Tonic (Patient 5, 72 weeks, CBD 50.0 mg/kg/day, baseline 4.0): 0.0 seizures per week
- Seizure frequency: Tonic (Patient 5, 84 weeks, CBD 50.0 mg/kg/day, baseline 4.0): 0.0 seizures per week
- Seizure frequency: Tonic (Patient 5, 96 weeks, CBD 49.7 mg/kg/day, baseline 4.0): 0.0 seizures per week
- Seizure frequency: Tonic (Patient 5, 108 weeks, CBD 49.7 mg/kg/day, baseline 4.0): 0.0 seizures per week
- Seizure frequency: Tonic (Patient 5, 132 weeks, CBD 49.1 mg/kg/day, baseline 4.0): 0.0 seizures per week
- Seizure frequency: Tonic (Patient 5, 144 weeks, CBD 50.0 mg/kg/day, baseline 4.0): 0.0 seizures per week
- reduction in tonic seizures over the treatment period (Patient 5, treated for 144 weeks, vs baseline): 100%
- Seizure frequency: Focal without impairment (Patient 6, 4 weeks, CBD 25.0 mg/kg/day, baseline 20.0): 8.0 seizures per week
- Seizure frequency: Focal without impairment (Patient 6, 8 weeks, CBD 25.0 mg/kg/day, baseline 20.0): 0.0 seizures per week
- Seizure frequency: Focal without impairment (Patient 6, 16 weeks, CBD 25.0 mg/kg/day, baseline 20.0): 4.0 seizures per week
- Seizure frequency: Focal without impairment (Patient 6, 24 weeks, CBD 25.0 mg/kg/day, baseline 20.0): 2.0 seizures per week
- reduction in focal seizures without impairment over the treatment period (Patient 6, treated for 24 weeks, vs baseline): 90%
- Seizure frequency: Focal with impairment (Patient 7, 2 weeks, CBD 10.0 mg/kg/day): 22.0 seizures per week
- Seizure frequency: Focal without impairment (Patient 7, 2 weeks, CBD 10.0 mg/kg/day, baseline 233.0): 182.0 seizures per week
- Seizure frequency: Focal with impairment (Patient 7, 4 weeks, CBD 20.0 mg/kg/day): 26.0 seizures per week
- Seizure frequency: Focal without impairment (Patient 7, 4 weeks, CBD 20.0 mg/kg/day, baseline 233.0): 62.0 seizures per week
- Seizure frequency: Focal with impairment (Patient 7, 8 weeks, CBD 25.0 mg/kg/day): 35.0 seizures per week
- Seizure frequency: Focal without impairment (Patient 7, 8 weeks, CBD 25.0 mg/kg/day, baseline 233.0): 125.0 seizures per week
- Seizure frequency: Focal with impairment (Patient 7, 12 weeks, CBD 25.0 mg/kg/day): 40.0 seizures per week
- Seizure frequency: Focal without impairment (Patient 7, 12 weeks, CBD 25.0 mg/kg/day, baseline 233.0): 112.0 seizures per week
- Seizure frequency: Focal with impairment (Patient 7, 16 weeks, CBD 25.0 mg/kg/day): 66.7 seizures per week
- Seizure frequency: Focal without impairment (Patient 7, 16 weeks, CBD 25.0 mg/kg/day, baseline 233.0): 93.3 seizures per week
- Seizure frequency: Focal with impairment (Patient 7, 24 weeks, CBD 25.0 mg/kg/day): 62.4 seizures per week
- Seizure frequency: Focal without impairment (Patient 7, 24 weeks, CBD 25.0 mg/kg/day, baseline 233.0): 96.8 seizures per week
- Seizure frequency: Focal with impairment (Patient 7, 36 weeks, CBD 20.0 mg/kg/day): 94.8 seizures per week
- Seizure frequency: Focal without impairment (Patient 7, 36 weeks, CBD 20.0 mg/kg/day, baseline 233.0): 39.7 seizures per week
- Seizure frequency: Focal with impairment (Patient 7, 48 weeks, CBD 20.0 mg/kg/day): 62.5 seizures per week
- Seizure frequency: Focal without impairment (Patient 7, 48 weeks, CBD 20.0 mg/kg/day, baseline 233.0): 92.9 seizures per week
- Seizure frequency: Focal with impairment (Patient 7, 60 weeks, CBD 20.0 mg/kg/day): 72.8 seizures per week
- Seizure frequency: Focal without impairment (Patient 7, 60 weeks, CBD 20.0 mg/kg/day, baseline 233.0): 141.2 seizures per week
- Seizure frequency: Focal with impairment (Patient 7, 72 weeks, CBD 20.0 mg/kg/day): 179.7 seizures per week
- Seizure frequency: Focal without impairment (Patient 7, 72 weeks, CBD 20.0 mg/kg/day, baseline 233.0): 139.4 seizures per week
- reduction in focal seizures without impairment over the treatment period (Patient 7, treated for 72 weeks, vs baseline): 40.2%
- Seizure frequency: Tonic (Patient 8, 4 weeks, CBD 20.0 mg/kg/day, baseline 280.0): 6.0 seizures per week
- Seizure frequency: Tonic (Patient 8, 8 weeks, CBD 25.0 mg/kg/day, baseline 280.0): 5.0 seizures per week
- Seizure frequency: Atonic (Patient 8, 12 weeks, CBD 25.0 mg/kg/day): 12.0 seizures per week
- Seizure frequency: Tonic (Patient 8, 12 weeks, CBD 25.0 mg/kg/day, baseline 280.0): 60.0 seizures per week
- Seizure frequency: Atonic (Patient 8, 16 weeks, CBD 25.0 mg/kg/day): 24.0 seizures per week
- Seizure frequency: Tonic (Patient 8, 16 weeks, CBD 25.0 mg/kg/day, baseline 280.0): 56.0 seizures per week
- Seizure frequency: Atonic (Patient 8, 24 weeks, CBD 25.0 mg/kg/day): 4.0 seizures per week
- Seizure frequency: Tonic (Patient 8, 24 weeks, CBD 25.0 mg/kg/day, baseline 280.0): 32.0 seizures per week
- Seizure frequency: Atonic (Patient 8, 36 weeks, CBD 10.0 mg/kg/day): 4.0 seizures per week
- Seizure frequency: Tonic (Patient 8, 36 weeks, CBD 10.0 mg/kg/day, baseline 280.0): 896.0 seizures per week
- reduction in atonic seizures over the treatment period (Patient 8, treated for 36 weeks, vs baseline): 95.0%
- reductions in seizures over period of treatment, overall (all patients, atonic, tonic and focal without impairment seizures): 40.2-100.0%
- seizure freedom from tonic seizures (one patient (patient 5), after 12 months of CBD treatment): seizure free of tonic seizures; also recorded: completely seizure free
- effect on frequency of atonic, tonic and focal without impairment seizures (in words) (patients with Cortical Dysplasia and Cortical Brain Malformation): effective in reducing the frequency; also recorded: significantly reduce the number of seizures; also recorded: significant reduction
